Patent US20260207623A1, “USE OF ESTETROL IN HEPATICALLY IMPAIRED PATIENTS” (ESTETRA SRL, priority 2022, published 2026)
Read-outs that look alike come from different tables or passages of the source.

Experiment: Phase 1 pharmacokinetic study of a single oral dose of 20 mg E4 monohydrate in female subjects with normal hepatic function and mild, moderate or severe hepatic impairment (plasma, LC-MS/MS, non-compartmental analysis)
Type: in vivo, human
Details: for AUC0-24 h, GM / CL/F, GM / CL/F, Mean / CL/F, Median / Cmax, Mean / λz, GM / λz, Mean / λz, Median / Tmax / AUC(0-inf) / Cmax / AUC(0-t) / half-life / Vd/F: plasma; for Tmax / AUC(0-inf) / Cmax / AUC(0-t) / half-life / Vd/F: female, human, 20 mg
Procedure: This was a Phase 1, multi-centre, open-label, PK, and safety study of a single oral dose of 20 mg E4 monohydrate in female subjects with normal hepatic function (Group 1), mild hepatic impairment (Group 2), moderate hepatic impairment (Group 3), and severe hepatic impairment (Group 4), as defined using the Child-Pugh classification at Screening.
The study consisted of an eligibility Screening period (within 28 days prior to study drug administration), an Assessment Period with in-house period and outpatient visits (including a single oral dose of 20 mg E4 on Day 1), and a follow up visit. All subjects were confined to the study site from Day-1 (the day before dosing) until Day 4 and returned to the site every day from Day 5 to Day 9. Alternatively, the subjects could stay for a prolonged in-house period in agreement with the Investigator. The follow-up visit occurred on Day 14 (+2 days).
All subjects arrived at the study site in the morning of Day-1 in a fasted state (no food for at least 8 h, water was allowed) to have the scheduled assessments performed in order to confirm eligibility as outlined in the inclusion and exclusion criteria (Section 2.3.1 and Section 2.3.2, respectively). In the morning of Day 1 following an overnight fast, the subjects received oral dosing of 20 mg E4 monohydrate and remained at the site. Study-related assessments were performed at time points indicated in the Schedule of Assessments in Table 2.
Serial blood sampling for PK assessments started on Day 1 and proceeded until Day 9 according to the Pharmacokinetic Sampling Schedule presented in Table 3.
Each enrolled subject was to receive a single oral dose of 20 mg of E4 (estetrol) as monohydrate as a film-coated tablet.
Study drug was administered to subjects in the morning after an overnight fast of at least 8 h.
Calculation of non-compartmental PK parameters were done using WinNonlin™ Professional, Version 6.3 or higher.
The primary PK parameters to be analyzed for E4 in plasma: • Cmax=maximum observed plasma concentration • AUCinf=area under the concentration-time curve (AUC) from time zero extrapolated to infinity
The analysis of E4 and the metabolites E4-3-glucuronide and E4-16-glucuronide in plasma samples were performed at the Bioanalytical Laboratory of the CRO using a validated liquid chromatography-mass spectrometry/mass spectrometry method.
Individual and mean plasma concentrations at each sampling time point for E4 are presented by listings and descriptive summary statistics including means, geometric means (GMs), medians, ranges, standard deviations (SD) and coefficients of variation (CV). Individual, mean and/or median concentrations per hepatic function group were plotted versus time on semilogarithmic scales.
PK parameters were calculated by non-compartmental analysis. PK parameters were analysed using descriptive statistics and are presented by hepatic function group.
Analysis of variance (ANOVA) were used to compare primary PK parameters of E4 (Cmax and AUCinf) between subjects with hepatic impairment and subjects with normal hepatic function in an exploratory approach, using the log-transformed value of each PK parameter as dependent variable, and the hepatic impairment group (normal, mild, moderate, and severe) as a fixed classification factor. Geometric least squares means were used to calculate the ratios of primary PK parameters for each hepatic impairment group to those in the control group, along with 90% confidence intervals (CIs).
Additionally, the impact of age and BMI on the effect of hepatic impairment were evaluated using an ANOVA model similar as the ANOVA model described above, but with the interaction between each factor and the hepatic impairment group included as an additional factor.
The relationship between log-transformed PK parameters (Cmax and AUCinf) and continuous parameters (albumin, total bilirubin, and prothrombin time) used for the Child-Pugh score was explored by a linear regression approach. […]

[1] = Mild hepatic impairment, single oral dose 20 mg E4 monohydrate
[2] = Moderate hepatic impairment, single oral dose 20 mg E4 monohydrate
[3] = Moderate vs. Normal, one-way ANOVA
[4] = Normal hepatic function, single oral dose 20 mg E4 monohydrate
[5] = Severe hepatic impairment, single oral dose 20 mg E4 monohydrate
[6] = Severe vs. Normal, one-way ANOVA

## C[C@]12CC[C@@H]3c4ccc(O)cc4CC[C@H]3[C@@H]1[C@@H](O)[C@@H](O)[C@@H]2O [E4, 1,3,5 (10)-estratrien-3,15alpha, 16alpha, 17beta-tetrol]
[1]
  AUC0-24 h, GM: 69.76 ng·h/mL
  CL/F, GM: 171.23 L/h
  CL/F, Mean: 177.13 L/h
  CL/F, Median: 188.75 L/h
  Cmax, Mean: 38.363 ng/mL
  λz, GM: 0.0300 h⁻¹
  λz, Mean: 0.0373 h⁻¹
  λz, Median: 0.0428 h⁻¹
Mild vs. Normal, one-way ANOVA
  AUCinf, Geometric Mean Ratio (Test/Reference) Estimate: 1.120
  Cmax, Geometric Mean Ratio (Test/Reference) Estimate: 1.661
[2]
  AUC0-24 h, GM: 88.75 ng·h/mL
  CL/F, GM: 185.80 L/h
  CL/F, Mean: 214.77 L/h
  CL/F, Median: 175.13 L/h
  Cmax, Mean: 52.410 ng/mL
  λz, GM: 0.0500 h⁻¹
  λz, Mean: 0.0520 h⁻¹
  λz, Median: 0.0493 h⁻¹
[3]
  AUCinf, Geometric Mean Ratio (Test/Reference) Estimate: 1.032
  Cmax, Geometric Mean Ratio (Test/Reference) Estimate: 1.896
[4]
  AUC0-24 h, GM: 60.41 ng·h/mL
  CL/F, GM: 191.77 L/h
  CL/F, Mean: 200.09 L/h
  CL/F, Median: 177.60 L/h
  Cmax, Mean: 23.878 ng/mL
  λz, GM: 0.0300 h⁻¹
  λz, Mean: 0.0329 h⁻¹
  λz, Median: 0.0307 h⁻¹
[5]
  AUC0-24 h, GM: 179.05 ng·h/mL
  CL/F, GM: 101.25 L/h
  CL/F, Mean: 104.83 L/h
  CL/F, Median: 111.40 L/h
  Cmax, Mean: 117.025 ng/mL
  λz, GM: 0.0800 h⁻¹
  λz, Mean: 0.0905 h⁻¹
  λz, Median: 0.1108 h⁻¹
[6]
  AUCinf, Geometric Mean Ratio (Test/Reference) Estimate: 1.894
  Cmax, Geometric Mean Ratio (Test/Reference) Estimate: 5.359
Comparison among hepatic function groups
  plasma levels at 24 h after administration: in the same range among the different hepatic function groups
oral, across all hepatic function groups, read-out: Tmax, range
  Tmax: 0.23 to 1.92 h
oral, all hepatic function groups, read-out: Median Tmax, range over the hepatic function groups
  Tmax: 0.25 to 0.5 h
po, Mild (Test), one-way ANOVA, single oral dose 20 mg, read-out: AUCinf, Geometric LS Mean
  AUC(0-inf): 117 ng·h/mL
po, Mild (Test), one-way ANOVA, single oral dose 20 mg, read-out: Cmax, Geometric LS Mean
  Cmax: 34.5 ng/mL
po, Mild hepatic impairment, single oral dose 20 mg E4 monohydrate, read-out: AUC0-24 h, GM
  AUC(0-t): 69.8 ng·h/mL
po, Mild hepatic impairment, single oral dose 20 mg E4 monohydrate, read-out: AUC0-24 h, Mean
  AUC(0-t): 72.9 ng·h/mL
po, Mild hepatic impairment, single oral dose 20 mg E4 monohydrate, read-out: AUC0-24 h, Median
  AUC(0-t): 66.3 ng·h/mL
po, Mild hepatic impairment, single oral dose 20 mg E4 monohydrate, read-out: AUCinf, GM
  AUC(0-inf): 117 ng·h/mL
po, Mild hepatic impairment, single oral dose 20 mg E4 monohydrate, read-out: AUCinf, Mean
  AUC(0-inf): 122 ng·h/mL
po, Mild hepatic impairment, single oral dose 20 mg E4 monohydrate, read-out: AUCinf, Median
  AUC(0-inf): 106 ng·h/mL
po, Mild hepatic impairment, single oral dose 20 mg E4 monohydrate, read-out: AUClast, GM
  AUC(0-t): 116 ng·h/mL
po, Mild hepatic impairment, single oral dose 20 mg E4 monohydrate, read-out: AUClast, Mean
  AUC(0-t): 121 ng·h/mL
po, Mild hepatic impairment, single oral dose 20 mg E4 monohydrate, read-out: AUClast, Median
  AUC(0-t): 105 ng·h/mL
po, Mild hepatic impairment, single oral dose 20 mg E4 monohydrate, read-out: Cmax, GM
  Cmax: 34.5 ng/mL
po, Mild hepatic impairment, single oral dose 20 mg E4 monohydrate, read-out: Cmax, Mean
  Cmax: ~38 ng/mL
po, Mild hepatic impairment, single oral dose 20 mg E4 monohydrate, read-out: Cmax, Median
  Cmax: 34.9 ng/mL
po, Mild hepatic impairment, single oral dose 20 mg E4 monohydrate, read-out: T1/2, GM (converted)
  half-life: 20.1 h
po, Mild hepatic impairment, single oral dose 20 mg E4 monohydrate, read-out: T1/2, Mean (converted)
  half-life: 22.1 h
po, Mild hepatic impairment, single oral dose 20 mg E4 monohydrate, read-out: T1/2, Median (converted)
  half-life: 16.2 h
po, Mild hepatic impairment, single oral dose 20 mg E4 monohydrate, read-out: Tmax, Median
  Tmax: 0.375 h
po, Mild hepatic impairment, single oral dose 20 mg E4 monohydrate, read-out: Vz/F, GM
  Vd/F: 4960 L
po, Mild hepatic impairment, single oral dose 20 mg E4 monohydrate, read-out: Vz/F, Mean
  Vd/F: 5830 L
po, Mild hepatic impairment, single oral dose 20 mg E4 monohydrate, read-out: Vz/F, Median
  Vd/F: 4800 L
po, Moderate (Test), one-way ANOVA, single oral dose 20 mg, read-out: AUCinf, Geometric LS Mean
  AUC(0-inf): 108 ng·h/mL
po, Moderate (Test), one-way ANOVA, single oral dose 20 mg, read-out: Cmax, Geometric LS Mean
  Cmax: 39.4 ng/mL
po, Moderate hepatic impairment, single oral dose 20 mg E4 monohydrate, read-out: AUC0-24 h, GM
  AUC(0-t): 88.8 ng·h/mL
po, Moderate hepatic impairment, single oral dose 20 mg E4 monohydrate, read-out: AUC0-24 h, Mean
  AUC(0-t): 103 ng·h/mL
po, Moderate hepatic impairment, single oral dose 20 mg E4 monohydrate, read-out: AUC0-24 h, Median
  AUC(0-t): 92.6 ng·h/mL
po, Moderate hepatic impairment, single oral dose 20 mg E4 monohydrate, read-out: AUCinf, GM
  AUC(0-inf): 108 ng·h/mL
po, Moderate hepatic impairment, single oral dose 20 mg E4 monohydrate, read-out: AUCinf, Mean
  AUC(0-inf): 123 ng·h/mL
po, Moderate hepatic impairment, single oral dose 20 mg E4 monohydrate, read-out: AUCinf, Median
  AUC(0-inf): 115 ng·h/mL
po, Moderate hepatic impairment, single oral dose 20 mg E4 monohydrate, read-out: AUClast, GM
  AUC(0-t): 107 ng·h/mL
